Reference: US20120164575A1, “CYCLIC COMPOUND, MANUFACTURING METHOD THEREFOR, RADIATION-SENSITIVE COMPOSITION, AND METHOD FOR FORMING A RESIST PATTERN” (MITSUBISHI GAS CHEMICAL COMPANY, INC., priority 2009, published 2012)

Experiment: Solubility of compound in safety solvent
Type: physicochemical
Settings: for solubility in CHN: cyclohexanone (CHN); for solubility in PGME: propylene glycol monomethyl ether (PGME); for solubility in PGMEA: propylene glycol monomethyl ether acetate (PGMEA)
Protocol: The compounds obtained in Synthesis Examples 1 to 6 and Synthesis 1 to 4 were evaluated for the solubility in propylene glycol monomethyl ether acetate (PGMEA), propylene glycol monomethyl ether (PGME) and cyclohexanone (CHN).
A: 4.0 wt %≦dissolved amount
B: 1.0 wt %≦dissolved amount<4.0 wt %
C: dissolved amount<1.0 wt %

Row | SMILES | solubility in CHN | solubility in PGME | solubility in PGMEA
1 | CC(C)c1ccc(C2c3cc(c(O)cc3O)C(c3ccc(C(C)C)cc3)c3cc(c(O)cc3O)C(c3ccc(C(C)C)cc3)c3cc(c(O)cc3O)C(c3ccc(C(C)C)cc3)c3cc2c(O)cc3O)cc1 (stereo not drawn) [CR-1A] | B (1.0 wt %≦dissolved amount<4.0 wt %) | B (1.0 wt %≦dissolved amount<4.0 wt %) | C (dissolved amount<1.0 wt %)
2 | CC(C)Cc1ccc(C2c3cc(c(O)cc3O)C(c3ccc(CC(C)C)cc3)c3cc(c(O)cc3O)C(c3ccc(CC(C)C)cc3)c3cc(c(O)cc3O)C(c3ccc(CC(C)C)cc3)c3cc2c(O)cc3O)cc1 (stereo not drawn) [CR-2A] | B (1.0 wt %≦dissolved amount<4.0 wt %) | C (dissolved amount<1.0 wt %) | C (dissolved amount<1.0 wt %)
3 | Oc1cc(O)c2cc1C(c1ccc(-c3ccccc3)cc1)c1cc(c(O)cc1O)C(c1ccc(-c3ccccc3)cc1)c1cc(c(O)cc1O)C(c1ccc(-c3ccccc3)cc1)c1cc(c(O)cc1O)C2c1ccc(-c2ccccc2)cc1 (stereo not drawn) [CR-3A] | B (1.0 wt %≦dissolved amount<4.0 wt %) | C (dissolved amount<1.0 wt %) | C (dissolved amount<1.0 wt %)
4 | Oc1cc(O)c2cc1C(c1ccc(C3CCCCC3)cc1)c1cc(c(O)cc1O)C(c1ccc(C3CCCCC3)cc1)c1cc(c(O)cc1O)C(c1ccc(C3CCCCC3)cc1)c1cc(c(O)cc1O)C2c1ccc(C2CCCCC2)cc1 (stereo not drawn) [CR-4A] | B (1.0 wt %≦dissolved amount<4.0 wt %) | B (1.0 wt %≦dissolved amount<4.0 wt %) | C (dissolved amount<1.0 wt %)
